Read-outs that look alike come from different tables or passages of the source.
Experiment: Crystalline and amorphous solubility of the substance
Type: physicochemical
Details: water
Protocol: The solubility of the substance in water may be measured using a conventional technique. For example, a saturated solution of the substance is prepared by adding an excess amount of the substance to water at 25° C. and allowing the solution to equilibrate for 48 hours. Excess solids are removed by centrifugation or filtration and the concentration of the substance in water is determined by a suitable analytical technique such as HPLC. Without wishing to be bound by theory, it is thought that the formation of the initial suspension of amorphous particles following combination of the first solution with the aqueous phase promotes the subsequent formation of a uniform dispersion of nano-crystalline particles during the subsequent sonication. […] It is thought that the presence of the dispersion of amorphous particles during the sonication provides a reservoir of material in solution for the crystallisation step and thereby maintains a high and constant level of super-saturation relative to the crystalline solubility because of the higher amorphous solubility. The high and relatively constant degree of supersaturation provided by the presence of the amorphous particles provides favorable conditions for the formation of a large number of primary nuclei upon application of the ultrasound to the dispersion of amorphous particles. […]

solubility (25 °C, thermodynamic from solid, crystalline form, read-out: crystalline solubility): 2 µM
solubility (amorphous form, read-out: amorphous solubility): ~24 µM
Compound: CCOC(=O)C1=C(C)NC(C)=C(C(=O)OC)C1c1cccc(Cl)c1Cl (centres unmarked) [felodipine]

Reference: patent publication US7780989B2, “Process for the preparation of crystalline nano-particle dispersions” (AstraZeneca AB, priority 2002, dated 2010)
